Molecular target: MCH receptor (Homo sapiens, UniProt Q99705)
Experiment: High throughput functional screening FLIPR/FDSS6000: inhibition of MCH-evoked intracellular Ca2+ changes
Format: cell-based
Conditions: class by percent of control at 10^-7 M or IC50
Summary of the method: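 Seed cells the day before, then load them with Fluo4-AM for one hour at 37° C and wash in HEPES-buffered HBSS, pH 7.4. Add compound for 3 min, then stimulate with 50 nM MCH. Monitor the calcium transient for 290 s.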

SMILES | class
Cc1c(Cl)cccc1NC(=S)NC[C@H]1CC[C@@H](Nc2nc(N(C)C)c3ccccc3n2)CC1 [compound 792] | 3 (Class 3: The value of percent of control at 10^−7 M was more than 60% or the value of IC50 was more than 200 nM.)
CN(C)c1nc(N[C@H]2CC[C@@H](NC(=S)Nc3ccc(I)cc3)CC2)nc2ccccc12 [compound 237] | 1 (Class 1: The value of percent of control at 10^−7 M was less than 40% or the value of IC50 was less than 50 nM.)
Cc1noc(C)c1NC(=S)N[C@H]1CC[C@@H](Nc2nc(N(C)C)c3ccccc3n2)CC1 [compound 400] | 3 (Class 3: The value of percent of control at 10^−7 M was more than 60% or the value of IC50 was more than 200 nM.)
CN(C)c1nc(N[C@H]2CC[C@@H](CNC(=O)Nc3ccc(Cl)cc3)CC2)nc2ccccc12 [compound 416] | 3 (Class 3: The value of percent of control at 10^−7 M was more than 60% or the value of IC50 was more than 200 nM.)
CN(C)c1nc(N[C@H]2CC[C@@H](CNC(=S)Nc3ccc(Sc4ccc([N+](=O)[O-])cc4)cc3)CC2)nc2ccccc12 [compound 741] | 3 (Class 3: The value of percent of control at 10^−7 M was more than 60% or the value of IC50 was more than 200 nM.)
CN(C)c1nc(N[C@H]2CC[C@@H](CNC(=O)NCCc3cccs3)CC2)nc2ccccc12 [compound 757] | 3 (Class 3: The value of percent of control at 10^−7 M was more than 60% or the value of IC50 was more than 200 nM.)
CN(C)c1nc(N[C@H]2CC[C@@H](NC(=S)Nc3c(F)cc(Br)cc3Br)CC2)nc2ccccc12 [compound 360, N-(2,4-dibromo-6-fluorophenyl)-N′-(cis-4-{[4-(dimethylamino)quinazolin-2-yl]amino}cyclohexyl)thiourea] | 1 (Class 1: The value of percent of control at 10^−7 M was less than 40% or the value of IC50 was less than 50 nM.)
COc1ccc(CNC(=S)NC[C@H]2CC[C@@H](Nc3nc(N(C)C)c4ccccc4n3)CC2)cc1 [compound 701] | 3 (Class 3: The value of percent of control at 10^−7 M was more than 60% or the value of IC50 was more than 200 nM.)
CN(C)c1nc(N[C@H]2CC[C@@H](CNC(=S)Nc3ccccc3OC(F)F)CC2)nc2ccccc12 [compound 639] | 3 (Class 3: The value of percent of control at 10^−7 M was more than 60% or the value of IC50 was more than 200 nM.)
Cc1ccc(Cl)cc1NC(=S)NC[C@H]1CC[C@@H](Nc2nc(N(C)C)c3ccccc3n2)CC1 [compound 662] | 2 (Class 2: The value of percent of control at 10^−7 M was from 40% to 60% or the value of IC50 was from 50 nM to 200 nM.)
CN(C)c1nc(N[C@H]2CC[C@@H](CNC(=S)NC3CCCCCC3)CC2)nc2ccccc12 [compound 748] | 3 (Class 3: The value of percent of control at 10^−7 M was more than 60% or the value of IC50 was more than 200 nM.)
CN(C)c1nc(N[C@H]2CC[C@@H](CNC(=O)Nc3ccc(F)cc3F)CC2)nc2ccccc12 [compound 422, N-(2,4-difluorophenyl)-N′-[(cis-4-{[4-(dimethylamino)quinazolin-2-yl]amino}cyclohexyl)methyl]urea] | 1 (Class 1: The value of percent of control at 10^−7 M was less than 40% or the value of IC50 was less than 50 nM.)
CN(C)c1nc(N[C@H]2CC[C@@H](CNC(=S)Nc3ccc(Br)cc3OC(F)(F)F)CC2)nc2ccccc12 [compound 793] | 2 (Class 2: The value of percent of control at 10^−7 M was from 40% to 60% or the value of IC50 was from 50 nM to 200 nM.)
COc1ccc(C)cc1NC(=S)NC[C@H]1CC[C@@H](Nc2nc(N(C)C)c3ccccc3n2)CC1 [compound 645] | 3 (Class 3: The value of percent of control at 10^−7 M was more than 60% or the value of IC50 was more than 200 nM.)
C=C(C)c1cccc(C(C)(C)NC(=O)NC[C@H]2CC[C@@H](Nc3nc(N(C)C)c4ccccc4n3)CC2)c1 [compound 441] | 2 (Class 2: The value of percent of control at 10^−7 M was from 40% to 60% or the value of IC50 was from 50 nM to 200 nM.)
CC(C)NC(=O)NC[C@H]1CC[C@@H](Nc2nc(N(C)C)c3ccccc3n2)CC1 [compound 443] | 3 (Class 3: The value of percent of control at 10^−7 M was more than 60% or the value of IC50 was more than 200 nM.)

Same assay, conditions: class by percent of control at 10^-7 M or by IC50; read-out: class

SMILES | IC50
CN(C)c1nc(N[C@H]2CC[C@@H](CNC(=S)NCCCN3CCOCC3)CC2)nc2ccccc12 [compound 810] | > 200 nM
Cc1c(Cl)cccc1NC(=O)N[C@H]1CC[C@@H](Nc2nc(N(C)C)c3ccccc3n2)CC1 [compound 129] | < 50 nM
CN(C)c1nc(N[C@H]2CC[C@@H](NC(=O)Oc3ccc4ccccc4c3)CC2)nc2ccccc12 [compound 856] | > 200 nM
CN(C)c1nc(N[C@H]2CC[C@@H](CNC(=O)OCc3ccccc3Cl)CC2)nc2ccccc12 [compound 883] | 50 to 200 nM
CN(C)c1nc(N[C@H]2CC[C@@H](CNC(=O)OCc3ccccc3)CC2)nc2ccccc12 [compound 878] | 50 to 200 nM
CN(C)c1nc(N[C@H]2CC[C@@H](NC(=S)Nc3cc(Cl)ccc3Cl)CC2)nc2ccccc12 [compound 168] | > 200 nM
CN(C)c1nc(N[C@H]2CC[C@@H](NC(=O)NCc3ccc(Br)cc3)CC2)nc2ccccc12 [compound 144, N-(4-bromobenzyl)-N′-(cis-4-{[4-(dimethylamino)quinazolin-2-yl]amino}cyclohexyl)urea] | < 50 nM
CN(C)c1nc(N[C@H]2CC[C@@H](NC(=O)Nc3c(F)cc(Br)cc3F)CC2)nc2ccccc12 [compound 142, N-(4-bromo-2,6-difluorophenyl)-N′-(cis-4-{[4-(dimethylamino)quinazolin-2-yl]amino}cyclohexyl)urea] | < 50 nM

Same assay, conditions: class by percent of control at 10^−7 M or by IC50; read-out: class

SMILES | IC50
CN(C)c1nc(N[C@H]2CC[C@@H](C(=O)NCc3ccccc3OC(F)(F)F)CC2)nc2ccccc12 [Example 1167, cis-4-{[4-(dimethylamino)quinazolin-2-yl]amino}-N-[2-(trifluoromethoxy)benzyl]cyclohexanecarboxamide] | < 50 nM
CN(C)c1nc(N[C@H]2CC[C@@H](C(=O)NCc3ccc(C(F)(F)F)cc3F)CC2)nc2ccccc12 [Example 1175, cis-4-{[4-(dimethylamino)quinazolin-2-yl]amino}-N-[2-fluoro-4-(trifluoromethyl)benzyl]cyclohexanecarboxamide] | < 50 nM
CN(C)c1nc(N[C@H]2CC[C@@H](C(=O)NCc3cc(F)cc(C(F)(F)F)c3)CC2)nc2ccccc12 [Example 1173, cis-4-{[4-(dimethylamino)quinazolin-2-yl]amino}-N-[3-fluoro-5-(trifluoromethyl)benzyl]cyclohexanecarboxamide] | < 50 nM
CN(C)c1nc(N[C@H]2CC[C@@H](CNC(=O)c3cc(C(F)(F)F)ccc3C(F)(F)F)C2)nc2ccccc12 [Example 1126, N-[((1R,3S)-3-{[4-(dimethylamino)quinazolin-2-yl]amino}cyclopentyl)methyl]-2,5-bis(trifluoromethyl)benzamide] | > 200 nM
CN(C)c1nc(N[C@H]2CC[C@@H](NC(=O)COc3cc(Cl)c(Cl)cc3Cl)CC2)nc2ccccc12 [Example 1077, N-(cis-4-{[4-(dimethylamino)quinazolin-2-yl]amino}cyclohexyl)-2-(2,4,5-trichlorophenoxy)acetamide] | 50 to 200 nM
CN(C)c1nc(N[C@H]2CC[C@@H](NC(=O)CNc3cccc(F)c3)CC2)nc2ccccc12 [Example 1087, N-(cis-4-{[4-(dimethylamino)quinazolin-2-yl]amino}cyclohexyl)-N2-(3-fluorophenyl)glycinamide] | < 50 nM

— patent publication US20070010671A1, “Novel quinazoline derivatives and methods of treatment related to the use thereof” (priority 2003, published 2007)
